# Where “and” joins values, the source holds several entries; their conditions need not be identical. Equal entries are not always repeated. Toxic doses and inconclusive results are not listed.
# System: P388 leukemia ip, CD2F1 mice, survival T/C
# Test: NCI In Vivo Anticancer Drug Screen. Data for tumor model P388 Leukemia (intraperitoneal) in CD2F1 (CDF1) mice
# Conditions: endpoint: median survival time, higher = longer survival
# How it was run: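 Mice carrying the transplanted tumor received test compound or vehicle. Survival was recorded in each group, and the value is the treated-group measurement divided by that of the vehicle-treated control group.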
# [1] = dose: 6.25 mg/kg/injection, schedule: Q04DX003 (ip), vehicle: saline
# [2] = dose: 12.5 mg/kg/injection, schedule: Q04DX003 (ip), vehicle: saline
# [3] = dose: 50.0 mg/kg/injection, schedule: Q04DX003 (ip), vehicle: suspension in saline
# [4] = dose: 100.0 mg/kg/injection, schedule: Q04DX003 (ip), vehicle: suspension in saline
# [5] = dose: 200.0 mg/kg/injection, schedule: Q04DX003 (ip), vehicle: suspension in saline
# [6] = dose: 50.0 mg/kg/injection, schedule: Q01DX009 (ip), vehicle: saline with Tween-80
# [7] = dose: 100.0 mg/kg/injection, schedule: Q01DX009 (ip), vehicle: saline with Tween-80
# [8] = dose: 200.0 mg/kg/injection, schedule: Q01DX009 (ip), vehicle: saline with Tween-80
# [9] = dose: 12.5 mg/kg/injection, schedule: Q01DX009 (ip), vehicle: saline with Tween-80
# [10] = dose: 25.0 mg/kg/injection, schedule: Q01DX009 (ip), vehicle: saline with Tween-80
# [11] = dose: 50.0 mg/kg/injection, schedule: Q01DX005 (ip), vehicle: saline
# [12] = dose: 60.0 mg/kg/injection, schedule: Q01DX005 (ip), vehicle: saline with Tween-80
# [13] = dose: 100.0 mg/kg/injection, schedule: Q01DX005 (ip), vehicle: saline
# [14] = dose: 120.0 mg/kg/injection, schedule: Q01DX005 (ip), vehicle: saline with Tween-80
# [15] = dose: 50.0 mg/kg/injection, schedule: Q01DX009 (ip), vehicle: Klucel (hydroxypropylcellulose) (HPC)
# [16] = dose: 100.0 mg/kg/injection, schedule: Q01DX009 (ip), vehicle: Klucel (hydroxypropylcellulose) (HPC)
# [17] = dose: 50.0 mg/kg/injection, schedule: Q01DX009 (ip), vehicle: suspension in saline
# [18] = dose: 100.0 mg/kg/injection, schedule: Q01DX009 (ip), vehicle: suspension in saline
# [19] = dose: 200.0 mg/kg/injection, schedule: Q01DX009 (ip), vehicle: suspension in saline
structure (smiles),measurement,setting,value
Cc1c2cc[n+](CCN3CCCCC3)cc2c(C)c2c1[nH]c1ccc(O)cc12,T/C,"dose: 1.56 mg/kg/injection, schedule: Q04DX003 (ip), vehicle: suspension in saline",152 % of control
same,T/C,"dose: 3.12 mg/kg/injection, schedule: Q04DX003 (ip), vehicle: suspension in saline",152 % of control
same,T/C,[1],178 % of control and 201 % of control
same,T/C,[2],178 % of control
same,T/C,"dose: 12.5 mg/kg/injection, schedule: Q04DX003 (ip), vehicle: suspension in saline",164 % of control
same,T/C,"dose: 25.0 mg/kg/injection, schedule: Q04DX003 (ip), vehicle: saline",190 % of control and 194 % of control
same,T/C,"dose: 25.0 mg/kg/injection, schedule: Q04DX003 (ip), vehicle: suspension in saline",164 % of control
same,T/C,"dose: 50.0 mg/kg/injection, schedule: Q04DX003 (ip), vehicle: saline",255 % of control
same,T/C,[3],152 % of control
same,T/C,"dose: 100.0 mg/kg/injection, schedule: Q04DX003 (ip), vehicle: saline",216 % of control
same,T/C,[4],169 % of control
same,T/C,"dose: 200.0 mg/kg/injection, schedule: Q04DX003 (ip), vehicle: saline",104 % of control
same,T/C,[5],98 % of control
COc1cc(C=Nc2ccc(-n3ccnc3C)cc2)ccc1N(CCCl)CCCl,T/C,"dose: 5.0 mg/kg/injection, schedule: Q01DX009 (ip), vehicle: Klucel (hydroxypropylcellulose) (HPC)",170 % of control
same,T/C,"dose: 10.0 mg/kg/injection, schedule: Q01DX009 (ip), vehicle: Klucel (hydroxypropylcellulose) (HPC)",181 % of control
same,T/C,"dose: 20.0 mg/kg/injection, schedule: Q01DX009 (ip), vehicle: Klucel (hydroxypropylcellulose) (HPC)",106 % of control
CC1(C)c2ccccc2-c2nc3ccccc3cc2C1O (configuration not stated),T/C,"dose: 25.0 mg/kg/injection, schedule: Q01DX001 (ip), vehicle: saline",96 % of control
same,T/C,"dose: 50.0 mg/kg/injection, schedule: Q01DX001 (ip), vehicle: saline",103 % of control
same,T/C,"dose: 100.0 mg/kg/injection, schedule: Q01DX001 (ip), vehicle: saline",101 % of control
same,T/C,"dose: 200.0 mg/kg/injection, schedule: Q01DX001 (ip), vehicle: saline",103 % of control
C=C(C)C1=CC(=O)C2CCCC(C)C2(C)C1OC(C)=O (configuration not stated),T/C,"dose: 75.0 mg/kg/injection, schedule: Q01DX001 (ip), vehicle: Klucel (hydroxypropylcellulose) (HPC)",100 % of control
same,T/C,"dose: 150.0 mg/kg/injection, schedule: Q01DX001 (ip), vehicle: Klucel (hydroxypropylcellulose) (HPC)",106 % of control
same,T/C,"dose: 300.0 mg/kg/injection, schedule: Q01DX001 (ip), vehicle: Klucel (hydroxypropylcellulose) (HPC)",107 % of control
CCCCCCC(=O)/C=C/c1cc(OC)c(OC)cc1OC,T/C,[6],100 % of control
same,T/C,[7],94 % of control
same,T/C,[8],96 % of control
COc1ccc(C2=CC(=O)N(C(C)C)C2=O)cc1,T/C,[9],107 % of control
same,T/C,[10],116 % of control
same,T/C,[6],107 % of control
same,T/C,[7],108 % of control
same,T/C,[8],109 % of control
O=C1NC(=O)C2C3CCC(O3)C12 (configuration not stated),T/C,[11],106 % of control and 99 % of control
same,T/C,[12],94 % of control
same,T/C,"dose: 60.0 mg/kg/injection, schedule: Q01DX005 (ip), vehicle: saline",101 % of control
same,T/C,[13],106 % of control and 98 % of control
same,T/C,[14],100 % of control
same,T/C,"dose: 120.0 mg/kg/injection, schedule: Q01DX005 (ip), vehicle: saline",102 % of control
same,T/C,"dose: 240.0 mg/kg/injection, schedule: Q01DX005 (ip), vehicle: saline with Tween-80",106 % of control
same,T/C,"dose: 240.0 mg/kg/injection, schedule: Q01DX005 (ip), vehicle: saline",92 % of control
O=C(NC(CO)C(=O)OCc1ccccc1)OCCc1ccccn1 (configuration not stated),T/C,"dose: 60.0 mg/kg/injection, schedule: Q01DX005 (ip), vehicle: Klucel (hydroxypropylcellulose) (HPC)",100 % of control
same,T/C,"dose: 120.0 mg/kg/injection, schedule: Q01DX005 (ip), vehicle: Klucel (hydroxypropylcellulose) (HPC)",96 % of control
same,T/C,"dose: 240.0 mg/kg/injection, schedule: Q01DX005 (ip), vehicle: Klucel (hydroxypropylcellulose) (HPC)",96 % of control
CCSc1ccc2c(cc1=O)C(N)CCc1cc(OC)c(OC)c(OC)c1-2 (configuration not stated),T/C,[15],96 % of control
same,T/C,[16],121 % of control
O=C(OCC1N=C1c1ccccc1)c1ccc([N+](=O)[O-])cc1 (configuration not stated),T/C,[3],99 % of control
same,T/C,[4],98 % of control
same,T/C,[5],100 % of control
O=C1CCSC(=S)N1c1ccc2c(c1)OCO2,T/C,[17],105 % of control
same,T/C,[18],90 % of control
same,T/C,[19],98 % of control
COc1cccc(C(=O)NC(=O)NC(=O)c2ccccc2)c1,T/C,"dose: 100.0 mg/kg/injection, schedule: Q04DX002 (ip), vehicle: saline with Tween-80",100 % of control
same,T/C,"dose: 200.0 mg/kg/injection, schedule: Q04DX002 (ip), vehicle: saline with Tween-80",93 % of control
same,T/C,"dose: 400.0 mg/kg/injection, schedule: Q04DX002 (ip), vehicle: saline with Tween-80",93 % of control
CNC(=S)Sc1c(Cl)c(Cl)c(Cl)c(Cl)c1Cl,T/C,[15],108 % of control
same,T/C,[16],108 % of control
same,T/C,"dose: 200.0 mg/kg/injection, schedule: Q01DX009 (ip), vehicle: Klucel (hydroxypropylcellulose) (HPC)",99 % of control
Cc1ccc(OCC(COc2ccc(C)cc2)(COc2ccc(C)cc2)COc2ccc(C)cc2)cc1,T/C,[9],86 % of control
same,T/C,[10],86 % of control
same,T/C,[6],86 % of control
O=C(CN1CCNCC1)N1CCOCC1,T/C,[11],100 % of control
same,T/C,[13],102 % of control
same,T/C,"dose: 200.0 mg/kg/injection, schedule: Q01DX005 (ip), vehicle: saline",97 % of control
CC(=O)[O-].[NH2-].[NH2-].[NH2-].[NH2-].[NH2-].[O-][Cl+3]([O-])([O-])O.[Ru+8],T/C,"dose: 3.13 mg/kg/injection, schedule: Q04DX003 (ip), vehicle: saline",118 % of control
same,T/C,"dose: 3.13 mg/kg/injection, schedule: Q04DX003 (ip), vehicle: water",99 % of control
same,T/C,[1],113 % of control
same,T/C,"dose: 6.25 mg/kg/injection, schedule: Q04DX003 (ip), vehicle: water",118 % of control
same,T/C,[2],111 % of control
same,T/C,"dose: 12.5 mg/kg/injection, schedule: Q04DX003 (ip), vehicle: water",120 % of control
CC(C)CC(=O)N(CCC#N)c1ncc([N+](=O)[O-])s1,T/C,"dose: 100.0 mg/kg/injection, schedule: Q01DX001 (ip), vehicle: Klucel (hydroxypropylcellulose) (HPC)",110 % of control
same,T/C,"dose: 200.0 mg/kg/injection, schedule: Q01DX001 (ip), vehicle: Klucel (hydroxypropylcellulose) (HPC)",98 % of control
O=C(O)C1CSC(c2coc3ccccc3c2=O)N1 (configuration not stated),T/C,[17],108 % of control
same,T/C,[18],117 % of control
same,T/C,[19],108 % of control
COc1cccc2c1C(=O)c1c(O)c3c(c(O)c1C2=O)CC(O)(C(=O)CO)CC3OC1CC(N(Cc2ccccc2)Cc2ccccc2)C(O)C(C)O1 (configuration not stated),T/C,"dose: 0.2 mg/kg/injection, schedule: Q01DX009 (ip), vehicle: water",115 % of control
same,T/C,"dose: 1.56 mg/kg/injection, schedule: Q01DX009 (ip), vehicle: water",151 % of control
same,T/C,"dose: 3.13 mg/kg/injection, schedule: Q01DX009 (ip), vehicle: water",156 % of control
same,T/C,"dose: 6.25 mg/kg/injection, schedule: Q01DX009 (ip), vehicle: water",175 % of control
O=S1(=O)CC(c2ccccc2)(N2CCOCC2)C1,T/C,[6],94 % of control
same,T/C,[7],96 % of control
same,T/C,[8],105 % of control
NC(=O)/N=[N+](\[O-])c1ccccc1,T/C,"dose: 50.0 mg/kg/injection, schedule: Q04DX003 (ip), vehicle: Klucel (hydroxypropylcellulose) (HPC)",98 % of control
same,T/C,"dose: 100.0 mg/kg/injection, schedule: Q04DX003 (ip), vehicle: Klucel (hydroxypropylcellulose) (HPC)",94 % of control
N/C(=N\OC1(c2ccccc2)OC(=O)C(=O)/C1=C(/O)c1ccccc1)c1ccccc1 (configuration not stated),T/C,[12],102 % of control
same,T/C,[14],100 % of control
Cc1cc(Cl)c2ccc(Cl)c(C)c2n1,T/C,"dose: 50.0 mg/kg/injection, schedule: Q01DX005 (ip), vehicle: saline with Tween-80",102 % of control
same,T/C,"dose: 100.0 mg/kg/injection, schedule: Q01DX005 (ip), vehicle: saline with Tween-80",104 % of control
same,T/C,"dose: 200.0 mg/kg/injection, schedule: Q01DX005 (ip), vehicle: saline with Tween-80",100 % of control
